12 molecules from patent publication US9200001B2, “Triazolyl PDE10 inhibitors” (Merck Sharp & Dohme Corp., priority 2011, dated 2015) can be followed below.

Sequence of human PDE10A2 (Q9Y233 267-1055): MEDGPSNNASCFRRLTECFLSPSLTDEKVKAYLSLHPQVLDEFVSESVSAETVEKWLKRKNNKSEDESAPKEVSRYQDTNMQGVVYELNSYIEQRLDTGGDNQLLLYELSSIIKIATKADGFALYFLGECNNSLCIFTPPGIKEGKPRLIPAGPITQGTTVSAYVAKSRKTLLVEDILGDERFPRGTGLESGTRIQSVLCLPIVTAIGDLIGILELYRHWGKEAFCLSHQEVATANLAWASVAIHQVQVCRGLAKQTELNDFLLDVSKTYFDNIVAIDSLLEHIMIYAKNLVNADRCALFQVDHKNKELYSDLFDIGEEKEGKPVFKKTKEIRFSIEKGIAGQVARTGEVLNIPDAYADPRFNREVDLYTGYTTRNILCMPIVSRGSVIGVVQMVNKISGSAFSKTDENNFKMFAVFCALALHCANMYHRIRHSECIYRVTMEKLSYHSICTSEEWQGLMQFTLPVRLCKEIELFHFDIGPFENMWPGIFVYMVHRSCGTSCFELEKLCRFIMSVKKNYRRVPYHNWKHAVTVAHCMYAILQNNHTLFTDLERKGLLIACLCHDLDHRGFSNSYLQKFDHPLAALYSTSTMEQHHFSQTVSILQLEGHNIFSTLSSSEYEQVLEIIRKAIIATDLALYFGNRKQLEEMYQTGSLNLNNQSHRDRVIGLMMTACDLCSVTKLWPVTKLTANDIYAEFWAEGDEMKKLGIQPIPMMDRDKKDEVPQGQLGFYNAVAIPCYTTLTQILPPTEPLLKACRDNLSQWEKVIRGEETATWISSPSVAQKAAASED

The assay has as its target human PDE10A2 (Homo sapiens (Human), UniProt Q9Y233). Put plainly: PDE10 fluorescence polarization (IMAP FP) inhibition assay. It is filed as biochemical. The following applies: FAM-labeled cAMP 50 nM, room temperature, read-out: PDE10a Ki. As for the experimental part: The activity of the compounds in accordance with the present invention as PDE10 inhibitors may be readily determined without undue experimentation using a fluorescence polarization (FP) methodology that is well known in the art (Huang, W., et al., J. Biomol Screen, 2002, 7: 215).
In a typical experiment the PDE10 inhibitory activity of the compounds of the present invention was determined in accordance with the following experimental method. PDE10A2 was amplified from human fetal brain cDNA (Clontech, Mountain View, Calif.) using a forward primer corresponding to nucleotides 56-77 of human PDE10A2 (Accession No. AF127480, Genbank Identifier 4894716), containing a Kozak consensus sequence, and a reverse primer corresponding to nucleotides 2406-2413 of human PDE10A2 (Accession No. AF127480, Genbank Identifier 4894716). Amplification with Easy-A polymerase (Stratagene, La Jolla, Calif.) was 95° C. for 2 minutes followed by thirty three cycles of 95° C. for 40 seconds, 55° C. for 30 seconds, and 72° C. for 2 minutes 48 seconds. Final extension was 72° C. for 7 minutes. The PCR product was TA cloned into pcDNA3.2-TOPO (Invitrogen, Carlsbad, Calif.) according to standard protocol. AD293 cells with 70-80% confluency were transiently transfected with human PDE10A2/pcDNA3.2-TOPO using Lipofectamine 2000 according to manufacturer specifications (Invitrogen, Carlsbad, Calif.). Cells were harvested 48 hours post-transfection and lysed by sonication (setting 3, 10×5 sec pulses) in a buffer containing 20 mM HEPES, 1 mM EDTA and protease inhibitor cocktail (Roche). Lysate was collected by centrifugation at 75,000×g for 20 minutes. Supernatant containing the cytoplasmic fraction was used for evaluation of PDE10A2 activity. The fluorescence polarization assay for cyclic nucleotide phosphodiesterases was performed using an IMAP® FP kit supplied by Molecular Devices, Sunnyvale, Calif. (product # R8139). IMAP® technology has been applied previously to phosphodiesterase assays (Huang, W., et al., J. Biomol Screen, 2002, 7: 215). Assays were performed at room temperature in 384-well microtiter plates with an incubation volume of 20.2 μL. Solutions of test compounds were prepared in DMSO and serially diluted with DMSO to yield 8 μL of each of 10 solutions differing by 3-fold in concentration, at 32 serial dilutions per plate. 100% inhibition is determined using a known PDE10 inhibitor, which can be any compound that is present at 5,000 times its Ki value in the assay described as follows, such as papaverine (see Siuciak, et al. Neuropharmacology (2006) 51:386-396; Becker, et al. Behav Brain Res (2008) 186(2):155-60; Threlfell, et al., J Pharmacol Exp Ther (2009) 328(3):785-795), 2-{4-[pyridin-4-yl-1-(2,2,2-trifluoroethyl)-1H-pyrazol-3-yl]phenoxymethyl}quinoline succinic acid or 2-[4-(1-methyl-4-pyridin-4-yl-1H-pyrazol-3-yl)-phenoxymethyl]quinoline succinic acid (see Schmidt, et al. J Pharmacol Exp Ther (2008) 325:681-690; Threlfall, et al., J Pharmacol Exp Ther (2009) 328(3): 785-795). 0% of inhibition is determined by using DMSO (1% final concentrations).
A Labcyte Echo 555 (Labcyte, Sunnyvale, Calif.) is used to dispense 200 nL from each well of the titration plate to the 384 well assay plate. A solution of enzyme (1/1600 dilution from aliquots; sufficient to produce 20% substrate conversion) and a separate solution of FAM-labeled cAMP PDE from Molecular Devices (product # R7506), at a final concentration of 50 nM are made in the assay buffer (10 mM Tris HCl, pH 7.2, 10 mM MgCl2, 0.05% NaN3 0.01% Tween-20, and 1 mM DTT). The enzyme and the substrate are then added to the assay plates in two consecutive additions of 10 μL, and then shaken to mix. The reaction is allowed to proceed at room temperature for 30 minutes. A binding solution is then made from the kit components, comprised of 80% Solution A, 20% Solution B and binding reagent at a volume of 1600 the total binding solution. […]
Background: In fluorescence polarisation assays a small probe gives low polarisation when free and higher when bound to something large.
In the case of `Cc1nc(C)n(-c2cc([C@H]3C[C@@H]3c3nc4ccccc4n3C)nc(N3CCNCC3)n2)n1` (relative stereo) [Cpd 126, trans-2-{2-[6-(3,5-dimethyl-1H-1,2,4-triazol-1-yl)-2-piperazin-1-ylpyrimidin-4-yl]cyclopropyl}-1-methyl-1H-benzimidazole], the Ki – broadly, the equilibrium dissociation constant of an inhibitor or competing ligand from its target – amounted to 2 nM.
As to `COc1ccc(Cc2nc(C)nn2-c2cc(C3CC3c3nc(C)no3)nc(C)n2)cc1OC` (stereo not drawn) [Cpd 24, 5-(2-(6-(5-(3,4-dimethoxybenzyl)-3-methyl-1H-1,2,4-triazol-1-yl)-2-methylpyrimidin-4-yl)cyclopropyl)-3-methyl-1,2,4-oxadiazole], the Ki is 248 nM.
Consider `Cc1nc([C@H]2C[C@@H]2c2nc3ccccc3s2)cc(-n2nc(C)nc2C)n1` (relative stereo) [Cpd 129, trans-2-{2-[6-(3,5-dimethyl-1H-1,2,4-triazol-1-yl)-2-methylpyrimidin-4-yl]cyclopropyl}-1,3-benzothiazole], for which the Ki was 43 nM.
The figure for `Cc1nc([C@@H]2C[C@H]2c2ccc3ccccc3n2)cc(-n2nc(C)nc2C)n1` (relative stereo) [Cpd 127, trans-2-{2-[6-(3,5-dimethyl-1H-1,2,4-triazol-1-yl)-2-methylpyrimidin-4-yl]cyclopropyl}quinoline] is 6 nM; for `Cc1nc([C@@H]2C[C@H]2c2nc3ccccc3n2C)cc(-n2nc(Br)nc2C)n1` [Cpd 88, 2-{(1R,2R)-2-[6-(3-bromo-5-methyl-1H-1,2,4-triazol-1-yl)-2-methylpyrimidin-4-yl]cyclopropyl}-1-methyl-1H-benzimidazole] it is 2 nM; for `Cc1nc(C)n(-c2cc([C@H]3C[C@@H]3c3nc4ccccc4n3C)nc(NC(C)C)n2)n1` (relative stereo) [Cpd 115, trans-4-(3,5-dimethyl-1H-1,2,4-triazol-1-yl)-6-[2-(1-methyl-1H-benzimidazol-2-yl)cyclopropyl]-N-(1-methylethyl)pyrimidin-2-amine] it is 1.9 nM.
As to `Cc1nc([C@@H]2C[C@H]2c2nc3ccccc3n2Cc2cccnc2)cc(-n2nc(C)nc2C)n1` (stereo in doubt) [Cpd 74, 2-{2-[6-(3,5-dimethyl-1H-1,2,4-triazol-1-yl)-2-methylpyrimidin-4-yl]cyclopropyl}-1-(pyridin-3-ylmethyl)-1H-benzimidazole], the inhibition constant (Ki) was determined as 9.9 nM.
Consider `Cc1nc(C2CC2c2nc3cc(F)c(F)cc3[nH]2)cc(-n2nc(C)nc2C)n1` (stereo not drawn) [Cpd 54, 2-(2-(6-(3,5-dimethyl-1H-1,2,4-triazol-1-yl)-2-methylpyrimidin-4-yl)cyclopropyl)-5,6-difluoro-1H-benzo[d]imidazole], for which the inhibitory constant (Ki) came out at 25.1 nM.
In the case of `COCCOc1nc([C@@H]2C[C@H]2c2nc3ccccc3n2C)cc(-n2nc(C)nc2C)n1` [Cpd 65, 2-{(1R,2R)-2-[6-(3,5-dimethyl-1H-1,2,4-triazol-1-yl)-2-(2-methoxyethoxy)pyrimidin-4-yl]cyclopropyl}-1-methyl-1H-benzimidazole] it was 1.08 nM; in that of `Cc1nc([C@H]2C[C@@H]2c2nc3ccccc3n2C)cc(-n2nc(C)nc2CN(C)C)n1` (stereo in doubt) [Cpd 87, N,N-dimethyl-1-(3-methyl-1-{2-methyl-6-[2-(1-methyl-1H-benzimidazol-2-yl)cyclopropyl]pyrimidin-4-yl}-1H-1,2,4-triazol-5-yl)methanamine], 10.6 nM; in that of `COc1ccc(Cc2nc(C)nn2-c2cc([C@H]3C[C@H]3c3ccc4ncccc4n3)nc(C)n2)cc1OC` (relative stereo) [Cpd 34, Cis-2-(2-(6-(5-(3,4-dimethoxybenzyl)-3-methyl-1H-1,2,4-triazol-1-yl)-2-methylpyrimidin-4-yl)cyclopropyl)-1,5-naphthyridine], 0.068 nM.
Consider `COc1ccc(Cc2nc(C)nn2-c2cc(/C=C/c3ccc4ccccc4n3)nc(C)n2)cc1OC` [Cpd 18, (E)-2-(2-(6-(5-(3,4-dimethoxybenzyl)-3-methyl-1H-1,2,4-triazol-1-yl)-2-methylpyrimidin-4-yl)vinyl)quinoline], for which the Ki worked out at 0.002 nM.
